Measured values published in patent US20260250337A1, “HYBRID ANTIMICROBIAL PEPTIDES” (UNIVERSIDADE FEDERAL DO ABC, priority 2023, published 2026).
No end group written: not given here.

What was measured:
[1] = system: S. epidermidis ATCC 12228; test: Liquid growth inhibition assay, MIC; format: cell-based; conditions: 37° C., 18 h
B. megaterium ATCC 10778 = test: Liquid growth inhibition assay, MIC; format: cell-based, Bacillus megaterium; conditions: 37° C., 18 h
Description: (§1) Initially, the antimicrobial activity was determined by liquid growth inhibition assays, as previously described by Pedron et al.^62. Briefly, Peptone Broth and Potato Dextrose Broth (Invitrogen) were used for antibacterial and antifungal assays, respectively. Two-fold serial dilutions of peptides (0.09-50 μmol L^−1) and microorganisms (Serratia marcescens ATCC 4112, Enterobacter cloacae β-12, Micrococcus luteus A270, Bacillus megaterium ATCC 10778, Bacillus subtilis ATCC 6633, Candida albicans MDM8, and Candida tropicalis IOC 4560) were incubated at 37° C. for 18 h (for bacteria) or 24 h (for fungi), and microbial growth was assessed by absorbance measurements at 595 nm. Experiments were performed in three biological repeats.

E. cloacae β-12 = test: Liquid growth inhibition assay, MIC; format: cell-based, Enterobacter cloacae; conditions: 37° C., 18 h
Description: as §1

C. albicans MDM8 = test: Liquid growth inhibition assay, MIC (antifungal); format: cell-based, Candida albicans; conditions: 37° C., 24 h
Description: as §1

C. tropicalis IOC 4560 = test: Liquid growth inhibition assay, MIC (antifungal); format: cell-based, Candida tropicalis; conditions: 37° C., 24 h
Description: as §1

human erythrocytes = test: Hemolytic activity assay; format: cell-based; conditions: human erythrocytes, 1 h; for MHC: room temperature, concentration with approximately 0% of hemolytic activity
Description: Method. Assays against freshly collected human erythrocytes were performed following protocols described by Pedron et al. 62. Briefly, peptide aliquots at concentrations ranging from 0.1 to 100 μmol L−1 were incubated with a suspension of erythrocytes at room temperature for 1 h. The samples were then centrifuged, and the absorbance of the supernatant was measured at 405 nm. The MHC (maximal non-hemolytic concentration) was determined as the maximal concentration at which 100% of the erythrocytes were viable. The surfactant SDS and PBS buffer were used as positive88, 89 and negative controls, respectively. Sodium heparin was used as an anticoagulant when collecting human blood. Three biological repeats were performed.

A. baumannii ATCC19606 [2] = test: Broth microdilution MIC, ESKAPE pathogens; format: cell-based; conditions: LB, 37° C., 24 h
Description: (§2) Method. The minimal inhibitory concentration (MIC) against the ESKAPE pathogens was determined using the broth microdilution method^81, 82 in Luria-Bertani (LB) medium. The MIC value was defined as the lowest concentration of peptide at which no microbial growth was observed. A. baumannii ATCC19606, E. coli ATCC11775, E. coli AIC221, E. coli AIC222, K. pneumoniae ATCC13883, S. aureus ATCC12600 P. aeruginosa PAO1, and P. aeruginosa PA14 were incubated on agar plates, and after 24 h, three isolated colonies were inoculated to 5 mL of Luria-Bertani (LB) broth and maintained at 37° C. overnight with shaking. Peptides were then added to 96-well polystyrene microtiter plates at concentrations ranging from 0 to 128 μmol L^−1, and 5×10^5 CFU mL^−1 of each bacterium was inoculated in each well. The plates were incubated at 37° C. for 24 h. Bacterial growth was measured using a microplate reader at 610 nm. Three independent replicates were performed.

E. coli AIC221 = test: Broth microdilution MIC, ESKAPE pathogens; format: cell-based; conditions: LB, 37° C., 24 h
Description: as §2

E. coli AIC222 = test: Broth microdilution MIC, ESKAPE pathogens; format: cell-based; conditions: LB, 37° C., 24 h
Description: as §2

E. coli ATCC11775 = test: Broth microdilution MIC, ESKAPE pathogens; format: cell-based; conditions: LB, 37° C., 24 h
Description: as §2

K. pneumoniae ATCC13883 = test: Broth microdilution MIC, ESKAPE pathogens; format: cell-based; conditions: LB, 37° C., 24 h
Description: as §2

P. aeruginosa PA14 = test: Broth microdilution MIC, ESKAPE pathogens; format: cell-based; conditions: LB, 37° C., 24 h
Description: as §2

P. aeruginosa PAO1 = test: Broth microdilution MIC, ESKAPE pathogens; format: cell-based; conditions: LB, 37° C., 24 h
Description: as §2

S. aureus ATCC12600 = test: Broth microdilution MIC, ESKAPE pathogens; format: cell-based; conditions: LB, 37° C., 24 h
Description: as §2

[3] = Circular dichroism, helical fraction (Lifson-Roig); format: physicochemical; conditions: peptide 50 μmol L^−1; for Helical fraction (fH) PBS: PBS 10 mmol L^−1, pH 7.4; for Helical fraction (fH) POPC: POPC 10 mmol L^−1; for Helical fraction (fH) POPC:DOPE: POPC:DOPE 3:1, mol:mol; for Helical fraction (fH) POPC:DOPE / Helical fraction (fH) POPC:POPG: 10 mmol L^−1; for Helical fraction (fH) POPC:POPG: POPC:POPG 3:1, mol:mol; for Helical fraction (fH) SDS: SDS 20 mmol L^−1 in water; for Helical fraction (fH) TFE/Water: TFE in water (3:2, v:v)
Description: Method. Circular dichroism (CD) assays were performed with a Spectropolarimeter Jasco Mod. J-815 (JascoCorp). CD spectra were obtained in Far-UV (195-260 nm), and analyzed in the following solutions: water, 2,2,2-trifluoroethanol (TFE) in water (3:2, v:v), phosphate buffer saline (PBS, 10 mmol L^−1, pH 7.4), sodium dodecyl sulfate (SDS 20 mmol L^−1) in water, palmitoyloleoylphosphatidylcholine (POPC; 10 mmol L^−1), palmitoyloleoylphosphatidylcholine:dioleylphosphatidylethanolamine (POPC:DOPE; 3:1, mol:mol, 10 mmol L^−1) and palmitoyloleoylphosphatidylcholine:palmitoyloleoylphosphatidylglycerol (POPC:POPG; 3:1, mol:mol, 10 mmol L^−1) at a peptide concentration of 50 μmol L^−1. These experiments were performed as described in detail by Pedron et al.^62.

A. baumannii ATCC19606 [4] = test: NPN uptake assay, outer membrane permeabilization; format: cell-based; conditions: peptides at their MIC
Description: Method. Membrane permeabilization was assessed for two of the naturally occurring peptides (VmCT1 and temporin A) and two of the hybrids [VmCT1-temporin A (VT) and temporin A-VmCT1 (TV)] at their MIC by using the N-phenyl-1-naphthylamine (NPN) uptake assay as previously described^104, 105. Briefly, A. baumannii ATCC19606 cells were grown to an optical density at 600 nm (OD600) of 0.4, centrifuged (10,000 rpm at 4° C. to 10 minutes), washed, and resuspended in buffer (5 mmol L^−1 HEPES, 5 mmol L^−1 glucose, pH 7.4). Four μL of NPN solution (0.5 mmol L^−1; working concentration of 10 μmol L^−1, after dilutions) was added to 100 μL of the bacterial solution in 96-well plates. The background fluorescence was then determined at λex=350 nm and […]. The peptides resuspended in water (100 μL at a concentration of 1.2 μmol L^−1) were added to each 96-well plate. The fluorescence was determined as a function of time until no further increase in fluorescence was observed (45 min).

Row | Substance | MIC S. epidermidis ATCC 12228 [1] [µM] | MIC B. megaterium ATCC 10778 (B. megaterium ATCC 10778) [µM] | MIC E. cloacae β-12 (E. cloacae β-12) [µM] | MIC C. albicans MDM8 (C. albicans MDM8) [µM] | MIC C. tropicalis IOC 4560 (C. tropicalis IOC 4560) [µM] | MHC (human erythrocytes) [µmol/L] | MIC A. baumannii ATCC19606 (A. baumannii ATCC19606 [2]) [µM] | MIC E. coli AIC221 (E. coli AIC221) [µM] | MIC E. coli AIC222 (E. coli AIC222) [µM] | MIC E. coli ATCC11775 (E. coli ATCC11775) [µM] | MIC K. pneumoniae ATCC13883 (K. pneumoniae ATCC13883) [µM] | MIC P. aeruginosa PA14 (P. aeruginosa PA14) [µM] | MIC S. aureus ATCC12600 (S. aureus ATCC12600) [µM] | Helical fraction (fH) PBS [3] | Helical fraction (fH) POPC [3] | Helical fraction (fH) POPC:DOPE [3] | Helical fraction (fH) POPC:POPG [3] | Helical fraction (fH) SDS [3] | Helical fraction (fH) TFE/Water [3] | Helical fraction (fH) Water [3] | also measured
1 | FLGAIGNVLKSIL-NH2 [TV, Phe-Leu-Gly-Ala-Ile-Gly-Asn-Val-Leu-Lys-Ser-Ile-Leu] | >50 | 6.3 | >50 | 25 | 3.1 | 0.2 | 16 | 16 | 8 | 32 | 16 | 128 | 16 | 0.04 | 0.12 | 0.35 | 0.06 | 0.28 | 0.50 | 0.04 | Hemolytic activity, concentration of peptide needed to kill 10% of red blood cells (human erythrocytes): 0.2 µmol/L; MIC P. aeruginosa PAO1 (P. aeruginosa PAO1): 128 µM; outer membrane permeabilization, NPN fluorescence (A. baumannii ATCC19606 [4]): increased fluorescence compared to the control
2 | FLGALWNVAKSVF-NH2 [VmCT1, Phe-Leu-Gly-Ala-Len-Trp-Asu-Val-Ala-Lys-Ser-Val-Phe, reference compound] | 3.1 | 1.6 | >50 | 12.5 | 12.5 | 6.3 | 8 | 32 | 16 | 16 | 64 | 128 | 8 | 0.03 | 0.42 | 0.55 | 0.25 | 0.17 | 0.30 | 0.05 | MIC P. aeruginosa PAO1 (P. aeruginosa PAO1): 128 µM; outer membrane permeabilization, NPN fluorescence (A. baumannii ATCC19606 [4]): increased fluorescence compared to the control
3 | FLPLIGRVLSGIL-NH2 [Temporin A, Phe-Leu-Pro-Leu-Ile-Gly-Arg-Val-Leu-Ser-Gly-Ile-Leu, reference compound] | >50 | 6.3 | >50 | 25 | 12.5 | 0.2 | 32 | 128 | 32 | 64 | 128 | 128 | 8 | 0.07 | 0.31 | 0.44 | 0.19 | 0.47 | 0.65 | 0.08 | Hemolytic activity, concentration of peptide needed to kill 10% of red blood cells (human erythrocytes): 0.2 µmol/L; MIC P. aeruginosa PAO1 (P. aeruginosa PAO1): 128 µM; outer membrane permeabilization, NPN fluorescence (A. baumannii ATCC19606 [4]): increased fluorescence compared to the control
4 | FLPLLWRVASGVF-NH2 [VT, Phe-Leu-Pro-Leu-Leu-Trp-Arg-Val-Ala-Ser-Gly-Val-Phe] | >50 | 6.3 | >50 | 12.5 | 25 | 0.2 | 16 | 128 | 32 | 64 | 128 | 128 | 4 | 0.18 | 0.45 | 0.42 | 1.00 | 0.82 | 1.00 | 0.21 | Hemolytic activity, concentration of peptide needed to kill 10% of red blood cells (human erythrocytes): 0.2 µmol/L; MIC P. aeruginosa PAO1 (P. aeruginosa PAO1): 128 µM; outer membrane permeabilization, NPN fluorescence (A. baumannii ATCC19606 [4]): did not lead to increased fluorescence compared to the control
5 | ILGAILNVLKSLG-NH2 [PV, Ile-Leu-Gly-Ala-Ile-Leu-Asn-Val-Leu-Lys-Ser-Leu-Gly] | >50 | 12.5 | >50 | 12.5 | 6.3 | 25 | 32 | 32 | 16 | 32 | 64 | 128 | 16 | 0.08 | 0.44 | 0.28 | 0.63 | 0.60 | 0.68 | 0.13 | Hemolytic activity, concentration of peptide needed to kill 10% of red blood cells (human erythrocytes): 25 µmol/L
